The values that follow come from the NIST ThermoML archive (doi:10.1021/je501026m).

For this data set the following is noted: Crystal; DTA.

± gives the expanded uncertainty stated by the source.

As for `C[n+]1ccn(CCOCCn2cc[n+](C)c2)c1.F[P-](F)(F)(F)(F)F.F[P-](F)(F)(F)(F)F`, the Normal melting temperature was 98.00 ± 1 °C.
